What was measured:
[1] = system: Wnt activity (Sp5-Luc reporter, TCF/LEF binding sites) in SW480 colon carcinoma cells; experiment: Screening assay for Wnt activity: Sp5-Luc reporter gene assay in stably transduced SW480 colon carcinoma cells; assay type: cell-based; conditions: Homo sapiens, overnight incubation, 10-point curve from 10 μM
In short: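 SW480 cells stably transduced with a luciferase reporter driven by an Sp5 promoter of eight TCF/LEF sites were plated at 4,000 cells/well in 1% FBS medium. They were exposed overnight at 37° C to a 10-point 1:3 dilution series from 10 μM (0.1% DMSO). Luminescence was normalized to DMSO for four-parameter EC50, or percent inhibition at 10 μM.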

[2] = system: primary human mesenchymal stem cells (hMSCs); experiment: Induction of chondrogenesis in primary human mesenchymal stem cells (nodule imaging, Rhodamine B / Nile Red); assay type: cell-based
In short: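 hMSCs (passage 3–6) in incomplete chondrogenic induction medium dosed at 2700–10 nM (96-well) or 5000–2.2 nM (384-well), 0.03% DMSO, for 6 days at 37 °C. Fixed cells stained with Rhodamine B/Nile Red and nodule area imaged, normalized to DMSO wells (fold change). EC50 set against TGF-β3 (10 ng/mL); maximum activity and its dose also reported.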

| SMILES | EC50 [1] [µM] | EC50 ([2]; concentration required to induce 50% levels of chondrogenesis vs TGF-β3 positive control, read-out: Conc (nM) of 50% TGF-β3 activity) [nM] | Emax ([2]; maximum chondrogenesis activity relative to TGF-β3 (10 ng/mL) positive control, read-out: Max. Activity as % TGF-β3 activity) [%] |
| --- | --- | --- | --- |
| O=C(Cc1ccccc1)Nc1cncc(-c2ccc3[nH]nc(-c4cc5c(-c6ccoc6)cccc5[nH]4)c3c2)c1 [Compound 318, N-(5-(3-(4-(Furan-3-yl)-1H-indol-2-yl)-1H-indazol-5-yl)pyridin-3-yl)-2-phenylacetamide] | 1.12 |  |  |
| c1cc(-c2ccoc2)c2cc(-c3n[nH]c4ccc(-c5cncc(CNCC6CCCC6)c5)cc34)[nH]c2c1 [Compound 333, 1-Cyclopentyl-N-((5-(3-(4-(furan-3-yl)-1H-indol-2-yl)-1H-indazol-5-yl)pyridin-3-yl)methyl)methanamine] | 3.77 |  |  |
| Nc1cncc(-c2ccc3[nH]nc(-c4cc5c(-c6ccoc6)cccc5[nH]4)c3c2)c1 [Compound 311, 5-(3-(4-(Furan-3-yl)-1H-indol-2-yl)-1H-indazol-5-yl)pyridin-3-amine] | 0.04 | 10 | 197 |

The remaining compounds from weak to strong by EC50 [1], led by results:

| EC50 [1] [µM] | EC50 ([2]; concentration required to induce 50% levels of chondrogenesis vs TGF-β3 positive control, read-out: Conc (nM) of 50% TGF-β3 activity) [nM] | SMILES | Emax ([2]; maximum chondrogenesis activity relative to TGF-β3 (10 ng/mL) positive control, read-out: Max. Activity as % TGF-β3 activity) [%] |
| --- | --- | --- | --- |
| 4.62 |  | Fc1cccc(-c2cccc3[nH]c(-c4n[nH]c5ccc(-c6ccncc6)cc45)cc23)c1 [Compound 18, 3-(4-(3-Fluorophenyl)-1H-indol-2-yl)-5-(pyridin-4-yl)-1H-indazole] |  |
| 1.15 |  | O=C(Nc1cncc(-c2ccc3[nH]nc(-c4cc5c(-c6ccsc6)cccc5[nH]4)c3c2)c1)C1CCCCC1 [Compound 303, N-(5-(3-(4-(Thiophen-3-yl)-1H-indol-2-yl)-1H-indazol-5-yl)pyridin-3-yl) cyclohexanecarboxamide] |  |
| 0.455 |  | CC(C)(C)CC(=O)Nc1cncc(-c2ccc3[nH]nc(-c4cc5c(-c6ccsc6)cccc5[nH]4)c3c2)c1 [Compound 296, 3,3-Dimethyl-N-(5-(3-(4-(thiophen-3-yl)-1H-indol-2-yl)-1H-indazol-5-yl)pyridin-3-yl)butanamide] |  |
